≈ marks a conversion by molar mass, not a printed value. No end group written: not given here.
How the values were obtained:
P. aeruginosa H374 = assay type: cell-based, Pseudomonas aeruginosa
Protocol: The synergistic effects of the inventive peptides with either chloramphenicol or nalidixic acid against efflux mutants of Pseudomonas aeruginosa were investigated. The MIC values were determined for either nalidixic acid or chloramphenicol alone as baselines. Peptides were added at their ¼ MIC concentration, and the concentration of either nalidixic acid or chloramphenicol to arrive at the MIC was determined. […] The fractional inhibitory concentration (FIC) index was used to determine synergy between peptides and antibiotics. Two-fold serial dilutions of antibiotic were tested in the presence of a constant amount of peptide, equal to one quarter of peptide MIC. The FIC index was determined as follows: FIC=0.25+MICantibiotic in combination/MICantibiotic alone. An FIC index of 0.5 or less is considered as synergy.

[1] = test system: yeast (Saccharomyces cerevisiae); assay: Antimicrobial assay I, yeast assay in RPMI 1640; assay type: cell-based; conditions: RPMI 1640 media
Protocol: (§1) The data for the following antimicrobial assay of the peptides have been obtained by making OD measurements in in vitro cell culture experiments with and without added peptide. The protocol used is as follows.
(§2) Absorbance was read at 620 nm after shaking to resuspend cells.
The yeast assay was performed in RPMI 1640 media (pH 7.0 at 25° C.).
(§3) Staph6538 is Staphylococcus aureus ATCC accession number 6538; paerug9027 is Pseudomonas aeruginosa ATCC accession number 9027, yeast is Saccharomyces cerevisiae.

H1299 = assay: Anti-cancer assay, MTT, LD50; assay type: cell-based; conditions: 24 hours with peptide, lung large cell carcinoma
Text: (§4) Numbers are LD50 values (μg/mL).

MCF7 = assay: Anti-cancer assay, MTT, LD50; assay type: cell-based; conditions: MCF7 breast adenocarcinoma line, MTT, 24 hours with peptide
Text: as §4

PC3 = assay: Anti-cancer assay, MTT, LD50; assay type: cell-based; conditions: 24 hours with peptide, prostate adenocarcinoma
Text: as §4

SW480 = assay: Anti-cancer assay, MTT, LD50; assay type: cell-based; conditions: SW480 colon adenocarcinoma line, 24 hours with peptide
Text: as §4

HeLaS3 = assay: Anti-cancer assay, MTT, LD50; assay type: cell-based; conditions: 24 hours with peptide, cervical carcinoma
Text: as §4

BMKC = assay: Anti-cancer assay, MTT, LD50; assay type: cell-based; conditions: BMKC cloned melanoma line, 24 hours with peptide
Text: as §4

[2] = test system: Staphylococcus aureus ATCC 6538; assay: Antimicrobial assay I, MIC by OD measurement; assay type: cell-based; conditions: 37° C. for 24 hours, absorbance 620 nm
Text: as §1
(§5) Cell lines included Staphylococcus aureus ATCC 6538 or 25923, Pseudomonas aeruginosa ATCC 9027 or 27853. Medium used were Antibiotic Medium 3 (Difco), Antibiotic Medium 2 (Difco), and 0.85% saline. Controls used were physiological saline, and gentamycin at 50, 25, 10, 5, 1, and 0.1 ppm.
as §2, §3

[3] = test system: Pseudomonas aeruginosa ATCC 9027; assay: Antimicrobial assay I, MIC by OD measurement; assay type: cell-based; conditions: 37° C. for 24 hours, absorbance 620 nm
Text: as §1, §5, §2, §3

in vitro [4] = conditions: human, WI38 normal lung fibroblast cells, LD50 WI38, WI38 normal lung fibroblast line, MTT, 24 hours with peptide
WI38 = conditions: MTT, 24 hours with peptide; normal fibroblast line
in vitro [5] = assay type: cell-based, human; conditions: human, human red blood cells, pH 7, hemolytic assay, concentration at 50% hemolysis, 1 hour at 37° C.; read-out: LD50
[6] = test system: Stapholococcus aureus ATCC 25923; assay: Antimicrobial assay I, modified protocol (tryptic soy broth), MBC; conditions: minimum bactericidal concentration, Table 4
Protocol: (§6) The preparation of all media, stock solutions, and dilutions took place in a laminar flow hood to prevent contamination. Bacterial cells were freshly grown on antibiotic medium 2 agar slants (pH 7.0 at 25° C.). Bacteria were suspended and diluted in antibiotic medium 3 to about 10^4 cfu/ml and used as the inoculum. Sample solutions (100 μl/well) were added to plates according to the plate layout. Inoculum (100 μl/well) was added to achieve a final concentration of 5×10^3 cfu/ml. Negative controls received 100 μl saline and 100 μl growth medium. Positive controls received 100 μl saline and 100 μl inoculum. Bacterial plates were incubated at 37° C. for 24 hours.
(§7) However, the data for Table 4 were obtained with a modified protocol wherein the medium was tryptic soy broth, inocolum strength was approximately 10^4 CFU per ml, and values determined were minimum bactericidal concentrations (MBC) or minimum fungicidal concentrations (MFC).
(§8) MBC or MFC values are in μg/mL. E. coli is Escherichia coli ATCC accession number 25922; P. aerug is Pseudomonas aeruginosa ATCC accession number 27853, S. aur. is Stapholococcus aureus ATCC accession number 25923; Candida is Candida albicans ATCC accession number 10231.

[7] = test system: Escherichia coli ATCC 25922; assay: as above; conditions: minimum bactericidal concentration, Table 4
[8] = test system: Pseudomonas aeruginosa ATCC 27853; assay: as above; conditions: minimum bactericidal concentration, Table 4
Protocol: as §6, §7, §8

| Compound | MIC Cm-comb. (P. aeruginosa H374; MIC of chloramphenicol with peptide at ¼ MIC) [µg/mL] | FIC Index (P. aeruginosa H374; chloramphenicol + peptide at ¼ MIC, 0.5 or less = synergy) | yeast (MIC or MFC) [1] [µg/mL] | H1299 LD50 (H1299) | LD50 MCF7 (MCF7) [µg/mL] | PC3 LD50 (PC3) | LD50 SW480 (SW480) | HeLaS3 LD50 (HeLaS3) | LD50 BMKC (BMKC) | staph6538 (MIC) [2] [µg/mL] | paerug9027 (MIC) [3] [µg/mL] | CC50 at 24 h (in vitro [4]) [µg/mL] | WI38 LD50 (WI38) [µg/mL] | HC50 at 1 h (in vitro [5]) [µg/mL] | MBC S. aur A.25923 [6] [µg/mL] | MBC E. coli A.25922 [7] [µg/mL] | MBC P. aerug A.27853 [8] [µg/mL] |
| --- | --- | --- | --- | --- | --- | --- | --- | --- | --- | --- | --- | --- | --- | --- | --- | --- | --- |
| FAKLLAKFLKKAL-NH2 [P113] | 16 | 1.25 | 200 | 50 µg/mL | 150 | 240 µg/mL | 180 µg/mL | 190 µg/mL | 115 µg/mL | 10 | 200 | 170 | 170 | 1000 |  |  |  |
| CC(C)C[C@H](NC(=O)[C@H](C)NC(=O)[C@H](CC(C)C)NC(=O)[C@H](CCCCN)NC(=O)[C@H](C)NC(=O)[C@H](CC(C)C)NC(=O)[C@H](CCCCN)NC(=O)[C@H](CCCCN)NC(=O)[C@H](CC(C)C)NC(=O)[C@H](CCCCN)NC(=O)[C@H](CCCCN)NC(=O)[C@H](C)NC(=O)[C@H](CC(C)C)NC(=O)[C@H](CCCCN)NC(=O)[C@H](CCCCN)NC(=O)[C@H](C)NC(=O)[C@@H](N)Cc1ccccc1)C(=O)N[C@@H](C)C(=O)N[C@@H](CCCCN)C(N)=O [compound 41] |  |  |  |  |  |  |  |  |  |  |  |  |  |  | 40 (≈ 19 µM) | 40 (≈ 19 µM) | 40 (≈ 19 µM) |
| FAKLLAKLAKKGL-NH2 [P152] |  |  | 100 | 410 µg/mL | 430 | > (> indicates greater than 1000) | 740 µg/mL | > (> indicates greater than 1000) | > (> indicates greater than 1000) | 100 | 50 | 620 | 620 | 880 |  |  |  |
| FALLKALKKAL-NH2 [P171, FALLKALKKAL-NH2] |  |  | 100 | 540 µg/mL | 305 | 600 µg/mL | 770 µg/mL | 820 µg/mL | 600 µg/mL | 25 | 50 | 615 | 615 | 550 |  |  |  |
| CC[C@H](C)[C@H](NC(=O)CNC(=O)[C@H](CC(N)=O)NC(=O)[C@H](CCCNC(=N)N)NC(=O)[C@@H](NC(=O)[C@H](CC(N)=O)NC(=O)[C@H](CCCNC(=N)N)NC(=O)CNC(=O)[C@@H](NC(=O)[C@H](CCCCN)NC(=O)[C@H](CCC(=O)O)NC(=O)[C@@H](NC(=O)[C@H](CCCCN)NC(=O)[C@H](CCCCN)NC(=O)[C@H](Cc1ccccc1)NC(=O)[C@@H](NC(=O)[C@H](CCCCN)NC(=O)[C@H](Cc1c[nH]c2ccccc12)NC(=O)[C@H](CCCCN)NC(=O)[C@@H]1CCCN1C(=O)[C@@H](N)CCSC)C(C)C)[C@@H](C)CC)C(C)C)[C@@H](C)CC)C(=O)N[C@H](C(=O)N[C@@H](CCCCN)C(=O)N[C@@H](C)C(=O)NCC(=O)N1CCC[C@H]1C(=O)N[C@@H](C)C(=O)N[C@H](C(=O)N[C@@H](C)C(=O)N[C@H](C(=O)N[C@@H](CC(C)C)C(=O)NCC(=O)N[C@@H](CCC(=O)O)C(=O)N[C@@H](C)C(=O)N[C@@H](CCCCN)C(=O)N[C@@H](C)C(=O)N[C@@H](CC(C)C)C(=O)NCC(=O)O)C(C)C)[C@@H](C)CC)C(C)C [compound 5] |  |  |  |  |  |  |  |  |  |  |  |  |  |  | 40 (≈ 9.78 µM) | 50 (≈ 12.2 µM) | >60 |
| CC(C)C[C@H](NC(=O)[C@H](C)NC(=O)[C@H](CCCCN)NC(=O)[C@H](CCCCN)NC(=O)[C@H](C)NC(=O)[C@H](CCCCN)NC(=O)[C@H](CCCCN)NC(=O)[C@H](CC(C)C)NC(=O)[C@H](C)NC(=O)[C@H](CCCCN)NC(=O)[C@H](CCCCN)NC(=O)[C@H](C)NC(=O)[C@H](CC(C)C)NC(=O)[C@H](C)NC(=O)[C@@H](N)Cc1ccccc1)C(N)=O [compound 40] |  |  |  |  |  |  |  |  |  |  |  |  |  |  | >40 | 30 (≈ 18.4 µM) | 40 (≈ 24.6 µM) |
| LKKLAKLALAF-NH2 [P179] |  |  | 100 | > (> indicates greater than 1000) | 555 | > (> indicates greater than 1000) | > (> indicates greater than 1000) | > (> indicates greater than 1000) | 920 µg/mL | 50 | 50 | 540 | 540 | 850 |  |  |  |
| CC(C)C[C@H](NC(=O)[C@H](C)NC(=O)[C@H](CC(C)C)NC(=O)[C@H](C)NC(=O)[C@H](CCCCN)NC(=O)[C@H](CCCCN)NC(=O)[C@H](C)NC(=O)[C@H](CC(C)C)NC(=O)[C@H](CCCCN)NC(=O)[C@H](C)NC(=O)[C@H](CC(C)C)NC(=O)[C@H](CCCCN)NC(=O)[C@H](CCCCN)NC(=O)[C@H](C)NC(=O)[C@@H](N)Cc1ccccc1)C(N)=O [compound 39] |  |  |  |  |  |  |  |  |  |  |  |  |  |  | >40 | >40 | >40 |
| FAKKLAKLAKKLLAL-NH2 [P38, FAKKLAKLAKKLLAL-NH2] |  |  | 50 | 33 µg/mL | 17 | 10 µg/mL | 13 µg/mL | 35 µg/mL | 21 µg/mL | 5 | 50 | 12 | 12 | 350 |  |  |  |
| VAKLLAKLAKKVL-NH2 [P154] |  |  | 50 | 400 µg/mL | 315 | 640 µg/mL | 750 µg/mL | > (> indicates greater than 1000) | 330 µg/mL | 100 | 100 | 600 | 600 | 450 |  |  |  |

Source: US20050209157A1, “Short bioactive peptides and methods for their use” (priority 2001, published 2005)
